Key:
[1] = target: Ribosomal protein S6 kinase alpha-6 (Homo sapiens) (UniProt Q9UK32); settings: Compound concentration 1.0 uM
[2] = target: T1, Serine/threonine-protein kinase Chk1 (Homo sapiens) (UniProt O14757); settings: Compound concentration 1.0 uM
T1 sequence (whole entry): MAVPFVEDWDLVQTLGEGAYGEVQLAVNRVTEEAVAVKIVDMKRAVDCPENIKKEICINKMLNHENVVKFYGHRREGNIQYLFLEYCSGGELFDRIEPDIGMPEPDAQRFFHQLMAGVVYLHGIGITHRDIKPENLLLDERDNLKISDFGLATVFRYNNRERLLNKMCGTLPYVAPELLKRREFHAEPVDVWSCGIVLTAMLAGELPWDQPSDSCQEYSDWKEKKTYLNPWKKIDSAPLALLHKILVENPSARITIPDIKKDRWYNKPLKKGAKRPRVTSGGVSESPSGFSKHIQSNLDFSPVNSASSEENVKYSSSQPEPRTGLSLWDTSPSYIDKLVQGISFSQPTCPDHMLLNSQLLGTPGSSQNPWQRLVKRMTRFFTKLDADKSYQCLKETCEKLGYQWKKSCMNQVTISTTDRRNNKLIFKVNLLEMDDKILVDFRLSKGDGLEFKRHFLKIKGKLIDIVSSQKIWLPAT

[3] = target: Serine/threonine-protein kinase Nek4 (Homo sapiens) (UniProt P51957); settings: Compound concentration 1.0 uM
[4] = target: STE20-like serine/threonine-protein kinase (Homo sapiens) (UniProt Q9H2G2); settings: Compound concentration 1.0 uM
[5] = target: Serine/threonine-protein kinase 35 (Homo sapiens) (UniProt Q8TDR2); settings: Compound concentration 1.0 uM
[6] = target: CDK6/cyclin D3 (Homo sapiens) (UniProt P30281+Q00534); settings: Compound concentration 1.0 uM
[7] = target: T2, Serine/threonine-protein kinase MAK (Homo sapiens) (UniProt P20794); settings: Compound concentration 1.0 uM
T2 sequence (whole entry): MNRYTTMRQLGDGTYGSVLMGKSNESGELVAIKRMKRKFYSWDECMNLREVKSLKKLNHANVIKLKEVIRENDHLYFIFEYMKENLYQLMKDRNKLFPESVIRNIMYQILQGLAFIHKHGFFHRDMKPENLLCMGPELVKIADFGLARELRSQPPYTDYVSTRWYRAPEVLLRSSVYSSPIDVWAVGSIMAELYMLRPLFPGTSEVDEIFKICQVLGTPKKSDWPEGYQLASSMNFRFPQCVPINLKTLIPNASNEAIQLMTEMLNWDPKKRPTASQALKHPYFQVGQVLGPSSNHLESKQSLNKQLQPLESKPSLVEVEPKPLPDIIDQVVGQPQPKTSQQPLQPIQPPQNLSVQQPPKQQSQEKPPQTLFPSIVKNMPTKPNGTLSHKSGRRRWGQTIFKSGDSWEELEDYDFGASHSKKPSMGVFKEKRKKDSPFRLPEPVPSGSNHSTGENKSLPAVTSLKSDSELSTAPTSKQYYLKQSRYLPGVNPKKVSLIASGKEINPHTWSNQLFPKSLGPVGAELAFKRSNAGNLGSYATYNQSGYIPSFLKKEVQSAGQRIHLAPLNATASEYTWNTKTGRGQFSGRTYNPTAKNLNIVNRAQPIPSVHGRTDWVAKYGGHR

[8] = target: RAF proto-oncogene serine/threonine-protein kinase (Homo sapiens) (UniProt P04049); settings: Compound concentration 1.0 uM
[9] = target: Tyrosine-protein kinase BTK (Homo sapiens) (UniProt Q06187); settings: Compound concentration 1.0 uM
[10] = target: T3, Mitogen-activated protein kinase 13 (Homo sapiens) (UniProt O15264); settings: Compound concentration 1.0 uM
T3 sequence (whole entry): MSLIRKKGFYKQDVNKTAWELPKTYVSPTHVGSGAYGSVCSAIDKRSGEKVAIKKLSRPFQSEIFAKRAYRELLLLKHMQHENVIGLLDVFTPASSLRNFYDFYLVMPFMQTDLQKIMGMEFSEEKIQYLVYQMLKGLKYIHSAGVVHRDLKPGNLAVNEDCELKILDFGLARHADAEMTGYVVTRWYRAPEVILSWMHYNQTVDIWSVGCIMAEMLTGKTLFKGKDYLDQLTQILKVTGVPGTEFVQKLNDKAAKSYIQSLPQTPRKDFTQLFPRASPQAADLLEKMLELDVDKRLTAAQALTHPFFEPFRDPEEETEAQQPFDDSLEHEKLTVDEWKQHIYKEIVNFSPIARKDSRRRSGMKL

[11] = target: Serine/threonine-protein kinase PLK2 (Homo sapiens) (UniProt Q9NYY3); settings: Compound concentration 1.0 uM
[12] = target: mTOR/FKBP12A/FKBP12B (Homo sapiens) (UniProt P62942+P68106+P42345); settings: Compound concentration 1.0 uM
[13] = target: TRAF2 and NCK-interacting protein kinase (Homo sapiens) (UniProt Q9UKE5); settings: Compound concentration 1.0 uM
[14] = target: Protein kinase C beta type (Homo sapiens) (UniProt P05771); settings: Compound concentration 1.0 uM
[15] = target: Serine/threonine-protein kinase 38-like (Homo sapiens) (UniProt Q9Y2H1); settings: Compound concentration 1.0 uM
[16] = target: T4, Dual specificity mitogen-activated protein kinase kinase 6 (Homo sapiens) (UniProt P52564); settings: Compound concentration 1.0 uM
T4 sequence (whole entry): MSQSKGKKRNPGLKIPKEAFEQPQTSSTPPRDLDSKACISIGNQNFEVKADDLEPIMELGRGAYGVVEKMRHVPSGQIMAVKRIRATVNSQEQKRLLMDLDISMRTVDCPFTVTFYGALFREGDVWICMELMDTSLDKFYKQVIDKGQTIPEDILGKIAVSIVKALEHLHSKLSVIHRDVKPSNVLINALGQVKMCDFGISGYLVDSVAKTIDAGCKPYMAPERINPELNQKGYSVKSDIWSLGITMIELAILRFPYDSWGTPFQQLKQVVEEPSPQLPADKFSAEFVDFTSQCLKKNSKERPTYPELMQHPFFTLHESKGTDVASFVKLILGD

[17] = target: SRSF protein kinase 1 (Homo sapiens) (UniProt Q96SB4); settings: Compound concentration 1.0 uM
[18] = target: Sodium-dependent serotonin transporter (Homo sapiens) (UniProt P31645); settings: Compound concentration 10.0 uM
[19] = target: [Pyruvate dehydrogenase (acetyl-transferring)] kinase isozyme 1, mitochondrial (Homo sapiens) (UniProt Q15118); settings: Compound concentration 1.0 uM
[20] = target: Death-associated protein kinase 2 (Homo sapiens) (UniProt Q9UIK4); settings: Compound concentration 1.0 uM
Chain of Death-associated protein kinase 2 (Homo sapiens) (Q9UIK4 whole entry, looked up): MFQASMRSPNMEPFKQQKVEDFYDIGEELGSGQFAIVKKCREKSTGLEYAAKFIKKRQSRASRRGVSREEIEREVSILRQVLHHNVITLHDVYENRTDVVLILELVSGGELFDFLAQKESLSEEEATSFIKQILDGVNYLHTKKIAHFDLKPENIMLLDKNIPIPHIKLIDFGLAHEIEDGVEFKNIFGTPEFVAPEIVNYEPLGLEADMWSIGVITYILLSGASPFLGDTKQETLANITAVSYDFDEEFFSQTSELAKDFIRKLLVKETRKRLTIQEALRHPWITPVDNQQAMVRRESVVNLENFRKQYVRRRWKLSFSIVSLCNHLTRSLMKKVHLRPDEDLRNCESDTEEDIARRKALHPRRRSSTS

Chain of Serine/threonine-protein kinase Nek4 (Homo sapiens) (P51957 whole entry, looked up): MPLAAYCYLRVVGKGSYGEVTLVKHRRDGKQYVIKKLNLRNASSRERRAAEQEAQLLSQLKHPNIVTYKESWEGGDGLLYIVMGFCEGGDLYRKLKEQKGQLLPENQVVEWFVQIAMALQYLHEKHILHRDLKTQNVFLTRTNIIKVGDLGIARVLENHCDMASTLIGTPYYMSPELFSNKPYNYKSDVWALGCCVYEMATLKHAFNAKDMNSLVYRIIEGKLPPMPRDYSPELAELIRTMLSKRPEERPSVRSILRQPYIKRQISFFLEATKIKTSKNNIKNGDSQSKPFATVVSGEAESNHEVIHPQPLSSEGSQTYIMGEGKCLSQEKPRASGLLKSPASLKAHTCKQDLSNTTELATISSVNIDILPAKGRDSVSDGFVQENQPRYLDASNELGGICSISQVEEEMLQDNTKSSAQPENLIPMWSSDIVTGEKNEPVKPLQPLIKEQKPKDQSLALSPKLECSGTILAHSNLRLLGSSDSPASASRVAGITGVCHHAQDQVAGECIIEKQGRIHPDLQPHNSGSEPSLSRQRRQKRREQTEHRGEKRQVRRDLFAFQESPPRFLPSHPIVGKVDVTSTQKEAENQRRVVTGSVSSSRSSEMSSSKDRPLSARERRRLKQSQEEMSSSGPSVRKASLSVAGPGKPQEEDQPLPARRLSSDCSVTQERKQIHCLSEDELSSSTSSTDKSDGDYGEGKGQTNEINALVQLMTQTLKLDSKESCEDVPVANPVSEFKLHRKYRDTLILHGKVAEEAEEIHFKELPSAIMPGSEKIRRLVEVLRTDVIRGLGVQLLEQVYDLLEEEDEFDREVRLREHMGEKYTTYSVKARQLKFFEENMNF
Chain of Tyrosine-protein kinase BTK (Homo sapiens) (Q06187 whole entry): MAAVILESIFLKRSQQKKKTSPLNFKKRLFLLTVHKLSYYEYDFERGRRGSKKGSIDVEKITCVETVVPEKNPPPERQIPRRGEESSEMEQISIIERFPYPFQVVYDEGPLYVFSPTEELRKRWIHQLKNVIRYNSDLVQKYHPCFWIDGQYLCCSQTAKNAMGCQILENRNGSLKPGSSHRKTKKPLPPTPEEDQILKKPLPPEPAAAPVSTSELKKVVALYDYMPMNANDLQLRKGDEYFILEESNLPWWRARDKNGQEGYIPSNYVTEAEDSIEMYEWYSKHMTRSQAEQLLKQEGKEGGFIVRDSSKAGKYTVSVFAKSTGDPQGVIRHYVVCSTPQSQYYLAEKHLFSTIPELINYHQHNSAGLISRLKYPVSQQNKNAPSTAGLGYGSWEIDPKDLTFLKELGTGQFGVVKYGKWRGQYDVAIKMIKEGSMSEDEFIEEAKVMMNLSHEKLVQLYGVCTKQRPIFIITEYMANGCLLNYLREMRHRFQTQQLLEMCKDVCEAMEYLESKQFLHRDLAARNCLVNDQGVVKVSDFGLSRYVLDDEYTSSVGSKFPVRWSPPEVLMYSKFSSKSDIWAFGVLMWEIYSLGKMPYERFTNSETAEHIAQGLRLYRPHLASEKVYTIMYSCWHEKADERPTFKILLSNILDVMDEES
Chain of STE20-like serine/threonine-protein kinase (Homo sapiens) (Q9H2G2 whole entry, looked up): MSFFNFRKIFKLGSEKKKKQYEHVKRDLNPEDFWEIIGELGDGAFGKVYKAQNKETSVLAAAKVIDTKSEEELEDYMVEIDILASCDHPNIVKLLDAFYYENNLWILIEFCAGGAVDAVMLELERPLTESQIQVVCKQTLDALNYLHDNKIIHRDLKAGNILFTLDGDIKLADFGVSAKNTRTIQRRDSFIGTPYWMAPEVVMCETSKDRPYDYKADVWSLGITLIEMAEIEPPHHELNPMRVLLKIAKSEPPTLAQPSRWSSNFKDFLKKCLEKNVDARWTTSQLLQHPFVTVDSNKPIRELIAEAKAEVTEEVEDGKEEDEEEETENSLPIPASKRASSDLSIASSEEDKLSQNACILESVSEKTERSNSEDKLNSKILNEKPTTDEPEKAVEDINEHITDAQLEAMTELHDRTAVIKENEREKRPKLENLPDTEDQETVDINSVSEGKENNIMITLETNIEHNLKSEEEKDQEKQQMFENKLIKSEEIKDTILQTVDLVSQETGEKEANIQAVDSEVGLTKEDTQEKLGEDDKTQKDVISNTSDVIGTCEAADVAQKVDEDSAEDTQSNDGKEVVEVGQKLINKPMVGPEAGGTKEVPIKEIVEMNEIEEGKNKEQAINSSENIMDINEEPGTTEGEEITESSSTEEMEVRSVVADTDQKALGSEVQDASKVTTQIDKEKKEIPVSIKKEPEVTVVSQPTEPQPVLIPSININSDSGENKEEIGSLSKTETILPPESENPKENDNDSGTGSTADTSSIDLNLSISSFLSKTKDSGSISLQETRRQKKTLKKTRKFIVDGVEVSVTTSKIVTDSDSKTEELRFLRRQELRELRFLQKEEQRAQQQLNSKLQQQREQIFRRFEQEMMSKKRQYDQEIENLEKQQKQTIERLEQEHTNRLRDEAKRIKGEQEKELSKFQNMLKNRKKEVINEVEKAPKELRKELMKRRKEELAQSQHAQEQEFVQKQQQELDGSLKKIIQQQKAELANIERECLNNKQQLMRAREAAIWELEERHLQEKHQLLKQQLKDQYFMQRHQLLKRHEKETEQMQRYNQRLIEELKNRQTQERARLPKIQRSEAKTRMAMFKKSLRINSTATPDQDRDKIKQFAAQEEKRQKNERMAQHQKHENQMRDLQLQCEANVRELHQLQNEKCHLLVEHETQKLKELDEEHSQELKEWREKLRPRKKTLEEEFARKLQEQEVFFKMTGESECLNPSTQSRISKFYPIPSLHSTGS
Chain of Serine/threonine-protein kinase 35 (Homo sapiens) (Q8TDR2 whole entry): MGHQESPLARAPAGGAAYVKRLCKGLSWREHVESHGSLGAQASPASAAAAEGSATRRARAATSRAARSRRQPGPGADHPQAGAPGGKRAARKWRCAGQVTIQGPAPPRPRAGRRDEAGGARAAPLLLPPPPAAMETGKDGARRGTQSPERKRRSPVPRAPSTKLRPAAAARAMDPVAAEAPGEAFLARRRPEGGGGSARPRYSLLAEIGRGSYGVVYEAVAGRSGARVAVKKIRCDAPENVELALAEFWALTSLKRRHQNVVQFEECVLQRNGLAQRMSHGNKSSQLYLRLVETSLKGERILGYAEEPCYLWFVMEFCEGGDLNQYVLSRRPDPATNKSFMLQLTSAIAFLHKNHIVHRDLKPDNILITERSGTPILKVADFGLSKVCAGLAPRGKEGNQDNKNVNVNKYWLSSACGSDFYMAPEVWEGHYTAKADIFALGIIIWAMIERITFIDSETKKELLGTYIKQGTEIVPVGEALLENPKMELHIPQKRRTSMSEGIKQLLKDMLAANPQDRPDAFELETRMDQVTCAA
Chain of Serine/threonine-protein kinase PLK2 (Homo sapiens) (Q9NYY3 whole entry, looked up): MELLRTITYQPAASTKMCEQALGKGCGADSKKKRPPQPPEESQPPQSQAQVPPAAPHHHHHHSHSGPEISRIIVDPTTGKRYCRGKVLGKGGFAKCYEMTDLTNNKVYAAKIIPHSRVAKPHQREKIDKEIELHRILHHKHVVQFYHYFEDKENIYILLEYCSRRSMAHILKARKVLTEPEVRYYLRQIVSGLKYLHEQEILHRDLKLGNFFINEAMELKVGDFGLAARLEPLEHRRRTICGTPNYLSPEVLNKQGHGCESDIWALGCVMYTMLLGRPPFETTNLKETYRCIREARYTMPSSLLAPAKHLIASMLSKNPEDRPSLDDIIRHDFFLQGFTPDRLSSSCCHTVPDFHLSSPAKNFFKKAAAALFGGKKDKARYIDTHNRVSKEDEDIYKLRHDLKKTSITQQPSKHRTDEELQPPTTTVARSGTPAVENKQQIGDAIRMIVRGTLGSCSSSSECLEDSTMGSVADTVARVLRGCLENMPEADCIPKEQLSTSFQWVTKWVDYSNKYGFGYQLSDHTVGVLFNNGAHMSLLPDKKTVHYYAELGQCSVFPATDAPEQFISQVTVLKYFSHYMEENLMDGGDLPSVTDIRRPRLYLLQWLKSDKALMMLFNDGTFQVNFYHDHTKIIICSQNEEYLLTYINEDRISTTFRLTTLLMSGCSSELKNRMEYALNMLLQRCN
Chain of Protein kinase C beta type (Homo sapiens) (P05771 2-671 limits assumed): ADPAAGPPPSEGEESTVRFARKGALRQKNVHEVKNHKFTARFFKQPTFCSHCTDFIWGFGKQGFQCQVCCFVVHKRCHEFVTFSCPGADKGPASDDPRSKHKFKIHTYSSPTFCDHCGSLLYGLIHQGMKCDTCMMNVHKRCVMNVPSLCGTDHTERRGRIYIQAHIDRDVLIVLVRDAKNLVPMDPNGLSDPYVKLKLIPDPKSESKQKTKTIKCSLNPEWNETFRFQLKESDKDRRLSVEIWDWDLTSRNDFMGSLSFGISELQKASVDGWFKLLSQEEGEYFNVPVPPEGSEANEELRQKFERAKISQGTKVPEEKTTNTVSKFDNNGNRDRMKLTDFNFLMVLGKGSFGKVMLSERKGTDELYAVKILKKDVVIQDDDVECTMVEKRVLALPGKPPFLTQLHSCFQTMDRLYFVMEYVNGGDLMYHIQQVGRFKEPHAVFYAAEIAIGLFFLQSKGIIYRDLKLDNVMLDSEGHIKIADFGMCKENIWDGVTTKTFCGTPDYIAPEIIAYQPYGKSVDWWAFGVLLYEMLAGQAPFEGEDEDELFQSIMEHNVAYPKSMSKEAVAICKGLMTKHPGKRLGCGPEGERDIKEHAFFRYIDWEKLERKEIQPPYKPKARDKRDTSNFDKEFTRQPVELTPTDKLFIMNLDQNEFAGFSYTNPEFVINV

CN1CCN(c2cnc3c(C4CCN(C(=O)c5ccc(OC(F)(F)F)cc5N)CC4)ncnc3c2)CC1 [BAY-885]
inactive: % residual kinase activity [1] 103% | % residual kinase activity [2] 89% | % residual kinase activity [3] 114% | % residual kinase activity [4] 87% | % residual kinase activity [5] 116% | % residual kinase activity [6] 96% | % residual kinase activity [7] 125% | % residual kinase activity [8] 107% | % residual kinase activity [9] 98% | % residual kinase activity [10] 112% | % residual kinase activity [11] 119% | % residual kinase activity [12] 101% | % residual kinase activity [13] 89% | % residual kinase activity [14] 110% | % residual kinase activity [15] 100% | % residual kinase activity [16] 99% | % residual kinase activity [17] 114% | inhibition [18] 32.4% | % residual kinase activity [19] 89% | % residual kinase activity [20] 99%

— ChEMBL document CHEMBL4507268 (2021)
